Measured values as given in US4613610A, “Cholesterol biosynthesis inhibiting pyrazole analogs of mevalonolactone and its derivatives” (Sandoz Pharmaceuticals Corp., priority 1985, dated 1986).
Read-outs that look alike come from different tables or passages of the source.

Legend:
HMG-CoA reductase = molecular target: T1, HMG-CoA reductase (Rattus norvegicus, UniProt P51639); assay: Test A. In Vitro Microsomal Assay of HMG-CoA Reductase Inhibition; format: biochemical, rat (male Sprague-Dawley rat liver microsomes)
T1 construct: the microsomes are the source of the HMG-CoA reductase enzyme; from tissue; host or cells: liver microsomes of male Sprague-Dawley rats (150-225 g)
T1 sequence (P51639 1-887): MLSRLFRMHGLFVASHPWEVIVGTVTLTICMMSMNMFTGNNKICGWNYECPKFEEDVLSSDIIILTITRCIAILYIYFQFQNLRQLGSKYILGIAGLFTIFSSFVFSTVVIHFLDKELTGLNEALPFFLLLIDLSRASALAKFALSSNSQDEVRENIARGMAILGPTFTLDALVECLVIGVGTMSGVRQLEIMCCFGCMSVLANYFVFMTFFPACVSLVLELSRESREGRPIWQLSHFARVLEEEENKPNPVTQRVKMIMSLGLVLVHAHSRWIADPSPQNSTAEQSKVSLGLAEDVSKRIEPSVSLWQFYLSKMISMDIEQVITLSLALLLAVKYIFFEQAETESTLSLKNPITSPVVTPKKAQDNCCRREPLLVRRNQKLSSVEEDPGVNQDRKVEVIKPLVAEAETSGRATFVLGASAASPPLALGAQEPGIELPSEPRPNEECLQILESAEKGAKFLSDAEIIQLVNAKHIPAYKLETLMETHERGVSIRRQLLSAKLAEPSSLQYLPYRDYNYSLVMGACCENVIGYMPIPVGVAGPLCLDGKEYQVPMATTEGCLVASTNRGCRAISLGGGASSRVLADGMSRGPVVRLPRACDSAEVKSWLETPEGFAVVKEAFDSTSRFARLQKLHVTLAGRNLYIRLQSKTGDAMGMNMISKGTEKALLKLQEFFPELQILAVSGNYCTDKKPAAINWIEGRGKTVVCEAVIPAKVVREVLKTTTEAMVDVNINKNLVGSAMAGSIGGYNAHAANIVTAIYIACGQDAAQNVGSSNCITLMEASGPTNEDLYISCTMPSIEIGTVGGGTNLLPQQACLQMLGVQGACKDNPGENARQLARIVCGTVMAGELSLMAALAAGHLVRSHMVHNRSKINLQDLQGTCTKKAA
Protocol: Test A. In Vitro Microsomal Assay of HMG-CoA Reductase Inhibition:
200 μl. aliquots (1.08-1.50 mg./ml.) of rat liver microsomal suspensions, freshly prepared from male Sprague-Dawley rats (150-225 g. body weight), in Buffer A with 10 mmol. dithiothreitol are incubated with 10 μl. of a solution of the test substance in dimethylacetamide and assayed for HMG-CoA reductase activity as described in Ackerman et al., J. Lipid Res. 18, 408-413 (1977), the concentration of the test substance in the assay system being 0.0001-2,000 μmolar. In the assay the microsomes are the source of the HMG-CoA reductase enzyme which catalyzes the reduction of HMG-CoA to mevalonate. The assay employs a chloroform extraction to separate the product, [^14 C]mevalonolactone, formed by the HMG-CoA reductase recution of the substrate, [^14 C]HMG-CoA. [^3 H]mevalonolactone is added as an internal reference. Inhibition of HMG-CoA reductase is calculated from the decrease in specific activity ([^14 C/^3 H]mevalonate) of test groups compared to controls.
IC50 is the concentration of the test substance in the assay system calculated or observed to produce a 50% inhibition of HMG-CoA reductase activity.

[1] = tested on: 3β-hydroxysterol synthesis (cholesterol biosynthesis); assay: Test B. In Vivo Cholesterol Biosynthesis Inhibition Test; parameters: species or system rat (male Wistar Royal Hart); conditions: Rattus norvegicus, read-out: ED50 (50% inhibition of 3β-hydroxysterol synthesis)
Protocol: In vivo studies utilize male Wistar Royal Hart rats weighing 150±20 g. which have been kept for 7-10 days on an altered light cycle (6:30 A.M.-6:30 P.M. dark) housed two per cage and fed powdered Purina Rat Chow and water ad libitum. Three hours before the diurnal maximum of cholesterol synthesis at mid-dark, the rats are orally administered the test substance (e.g., 0.01-200 mg./kg. body weight) dissolved or as a suspension in 0.5% carboxymethylcellulose in a volume of 1 ml./100 g. body weight. Controls receive vehicle alone. One hour after receiving the test substance (or the vehicle alone), the rats are injected intraperitoneally with about 25 μCi/100 g. body weight of sodium [1-^14 C]acetate 1-3 mCi/mmol. Two hours after mid-dark, blood samples are obtained under sodium hexobarbitol anesthesia, and the serum is separated by centrifugation.
Serum samples are saponified and neutralized, and the 3β-hydroxysterols are precipitated with digitonin basically as described in Sperry et al., J. Biol. Chem. 187, 97 (1950). The [^14 C]digitonides are then counted by liquid scintillation spectrometry. After correcting for efficiencies, the results are calculted in nCi (nanocuries)of 3β-hydroxysterol formed per 100 ml. of serum. Inhibition of 3β-hydroxysterol synthesis is calculated from the reduction in the nCi of 3β-hydroxysterols formed from test groups compared to controls.
ED50 is the dose of the test substance calculated or observed to produce a 50% inhibition of 3β-hydroxysterol synthesis.

[2] = rat liver microsomal suspensions, test substance 0.0001-2,000 μmolar, calculated or observed, read-out: IC50 (50% inhibition of HMG-CoA reductase activity)
[3] = male rats, oral, in 0.5% carboxymethylcellulose, [1-14C]acetate i.p. 1 h later, serum, calculated or observed

| IC50 (HMG-CoA reductase; [2]) | SMILES | ED50 [1, 3] | ED50 ([1]; po, 1 h) | IC50 (HMG-CoA reductase) |
| --- | --- | --- | --- | --- |
| 260 nM | CC(C)c1c(/C=C/[C@@H]2C[C@@H](O)CC(=O)O2)c(-c2ccc(F)cc2)nn1-c1ccccc1 (relative stereo) [Example 11, (E)-Trans-6-(2'-[3"-(4'"-fluorophenyl)-5"-(1'"-methylethyl)-1"-phenyl-1H-pyrazol-4"-yl]ethenyl)-4-hydroxy-3,4,5,6-tetrahydro-2H-pyran-2-one] | – | – | – |
| 80 nM | CC(C)n1nc(-c2ccccc2)c(-c2ccc(F)cc2)c1/C=C/[C@@H]1C[C@@H](O)CC(=O)O1 [Example 1, (E)-Trans-6S-(2'-[4"-(4'"-fluorophenyl)-1"-(1'"-methylethyl)-3"-phenyl-1H-pyrazol-5"-yl]ethenyl)-4R-hydroxy-3,4,5,6-tetrahydro-2H-pyran-2-one] | – | – | – |
| – | CC[C@H](C)C(=O)O[C@H]1CCC=C2C=C[C@H](C)[C@H](CC[C@@H]3C[C@@H](O)CC(=O)O3)[C@H]21 [Compactin, reference compound] | 3.5 mg/kg | – | – |
| – | CC[C@H](C)C(=O)O[C@H]1C[C@@H](C)C=C2C=C[C@H](C)[C@H](CC[C@@H]3C[C@@H](O)CC(=O)O3)[C@H]21 [Mevinolin, reference compound] | – | 0.41 mg/kg | 140 nM |
| 60 nM | CC(C)n1nc(-c2ccccc2)c(-c2ccc(F)cc2)c1/C=C/[C@@H](O)C[C@@H](O)CC(=O)O [Example 3, Sodium erythro-(E)-3R,5S-dihydroxy-7-[4'-(4"-fluorophenyl)-1'-(1"-methylethyl)-3'-phenyl-1H-pyrazol-5'-yl]hept-6-enoate] | 0.05 mg/kg | – | – |
| 20 nM | CC(C)c1nn(-c2ccccc2)c(-c2ccc(F)cc2)c1/C=C/[C@@H](O)C[C@@H](O)CC(=O)O (relative stereo) [Example 14, Sodium erythro-(±)-(E)-3,5-dihydroxy-7-[5'-(4"-fluorophenyl)-3'-(1"-methylethyl)-1'-phenyl-1H-pyrazol-4'-yl]hept-6-enoate] | 0.013 mg/kg | – | – |
| 40 nM | CC(C)n1nc(-c2ccccc2)c(-c2ccc(F)cc2)c1/C=C/[C@@H](O)C[C@@H](O)CC(=O)O (relative stereo) [Example 7, Sodium erythro-(E)-3,5-dihydroxy-7-[4'-(4"-fluorophenyl)-1'-(1"-methylethyl)-3'-phenyl-1H-pyrazol-5'-yl]hept-6-enoate] | 0.06 mg/kg | – | – |
| 103000 nM | CC(C)n1nc(-c2ccccc2)c(-c2ccc(F)cc2)c1/C=C\[C@@H]1C[C@@H](O)CC(=O)O1 [Example 2, (Z)-Trans-6S-(2'-[4"-(4'"-fluorophenyl)-1"-(1'"-methylethyl)-3"-phenyl-1H-pyrazol-5"-yl]ethenyl)-4R-hydroxy-3,4,5,6-tetrahydro-2H-pyran-2-one] | – | – | – |
